Experimental data taken from patent US11324787B2, “Analytical methods and arrays for use in the same” (SENZAGEN AB, priority 2017, dated 2022).
Counter-ions that a name gives are not always drawn. Like-named read-outs stand apart in the source and are kept apart here.

Experiments:
[1] = cited from earlier work; for binary class (HP*): based on human potency [41] where available, otherwise according to CLP; for Human potency: class 1 representing highest potency, 6 representing non-sensitizers; for HP: human potency; for Human potency [41]: test set
[2] = cited from earlier work; for binary class: sens / non-sens; for true CLP: test set
[3] = system: myeloid cell line derived from MUTZ-3; assay: Cytotoxicity / viability by flow cytometry (propidium iodide), 24 hours exposure; settings: yes/no; MUTZ-3 derived cells
[4] = system: myeloid cell line derived from MUTZ-3; assay: GARD binary classification (SVM on GARD prediction signature, 200 transcripts)
[5] = system: myeloid cell line derived from MUTZ-3; assay: GARD random forest model predicting CLP categories (52 transcripts, Example A); settings: test set; for GARD predicted CLP: majority voting across replicates; for predicted CLP: separate replicates
[6] = Table 9, chemicals training set
[7] = chemicals of random forest training and test set
[8] = Table 8 chemical list, GARD SVM decision value
[9] = CLP annotation of 37 novel chemicals

Molecule	CLP [2, 6]	CLP [2, 7]	binary class [2, 7]	SVM DV [4, 8]	HP [1, 7]	further results
OCc1ccccc1 [benzyl alcohol]	no cat	no cat	non-sens			binary class (HP*) [1]: NS (5-6 = NS); cytotox [3]: no
Nc1ccc(N)cc1 [PPD]				5.32		Human potency [1]: 1
COC(=O)c1ccccc1O [methyl salicylate]	no cat	no cat	non-sens	−1.53	5	Human potency [1]: 5
O=C(O)c1ccccc1 [benzoic acid]		no cat	non-sens			binary class (HP*) [1]: NS (5-6 = NS); GARD predicted CLP [5]: no cat; predicted CLP [5]: no cat; CLP ([2]; Table 10, chemicals test set 1): no cat; true CLP ([2]; per replicate line): no cat; true CLP [2]: no cat
O=[N+]([O-])c1ccc(F)c([N+](=O)[O-])c1 [2,4-dinitrofluorobenzene, 2,4-Dinitrofluorobenzene]	1A	1A	sens			binary class (HP*) [1]: S (HP 1-4 = S); CLP [2, 9]: 1A; GARD binary prediction ([4]; SVM, median calibrated decision value of replicates >0 = sensitizer): S
CC(O)C(=O)O (stereo not shown) [lactic acid]				−2.38	6	
CCCCCC [hexane]	no cat	no cat	non-sens		6	
OC/C=C/c1ccccc1 [Cinnamic alcohol]				2.94		Human potency [1]: 3
Oc1cccc(O)c1 [resorcinol]				1.03	4	HP ([1]; 11 benchmark chemicals): 4; Human potency [1]: 4
NCCN [ethylenediamine]				1.12		
Sc1nc2ccccc2s1 [2-mercaptobenzothiazole]	1A	1A	sens	2.52	3	Human potency [1]: 3
Oc1ccc(O)cc1 [hydroquinone]	1A	1A	sens		3	
CC1(C)S[C@@H]2[C@H](NC(=O)Cc3ccccc3)C(=O)N2[C@H]1C(=O)O [Penicillin G]				1.06		Human potency [1]: 3
C=O [formaldehyde]						SVM DV [4]: 2.32
CCCCCCC(C=O)=Cc1ccccc1 [hexylcinnamic aldehyde]	1B	1B	sens	1.24	5	HP ([1]; 11 benchmark chemicals): 5; Human potency [1]: 5; CLP ([2]; 11 benchmark chemicals): 1B; binary class ([2]; 11 benchmark chemicals): sens
dextran	no cat	no cat	non-sens		6	binary class (HP*) [1]: NS (5-6 = NS); cytotox [3]: no
NC[C@H]1O[C@H](O[C@H]2[C@H](O)[C@@H](O[C@H]3O[C@H](CO)[C@@H](O)[C@H](N)[C@H]3O)[C@H](N)C[C@@H]2N)[C@H](O)[C@@H](O)[C@@H]1O [kanamycin A]	no cat	no cat	non-sens			binary class (HP*) [1]: NS (5-6 = NS)
xylene					6	Human potency [41] [1]: 6
CC=Cc1ccc(OC)cc1 [anethole]					5	binary class (HP*) [1]: NS (5-6 = NS); Human potency [41] [1]: 5; GARD predicted CLP [5]: 1B; predicted CLP [5]: 1B

Molecule	CLP [2, 6]	CLP [2, 7]	binary class [2, 7]	SVM DV [4, 8]	HP [1, 7]	further results
O=CC=O [glyoxal]				1.08		
OCC=Cc1ccccc1 [cinnamyl alcohol]	1B	1B	sens		3	
CC(CC=O)CCCC(C)(C)O (stereo not shown) [hydroxycitronellal]	1B	1B	sens		4	
O=[N+]([O-])c1ccc(CBr)cc1 [4-nitrobenzylbromide]	1A	1A	sens			
CCCCCCCCCCCCOS(=O)(=O)[O-].[Na+] [Sodium lauryl sulfate]				−1.52		
CC(O)CO (stereo not shown) [Propylene glycol]				−1.18		Human potency [1]: 5
O=Cc1ccccc1 [benzaldehyde]				−2.13		
C=CC(=O)OCCO [2-hydroxyethyl acrylate]				8.87		
O=C(O)c1ccccc1O [salicylic acid]				−1.41	6	Human potency [1]: 6
O=C(O)C(O)C(O)C(=O)O (stereo not shown) [tartaric acid]						cytotox [3]: no
Nc1ccc(N)cc1 [p-phenylenediamine]	1A	1A	sens			CLP ([2]; 11 benchmark chemicals): 1A; binary class ([2]; 11 benchmark chemicals): sens
O=[N+]([O-])c1ccc(Cl)c([N+](=O)[O-])c1 [2,4-dinitrochlorobenzene]	1A	1A	sens		1	HP ([1]; 11 benchmark chemicals): 1; CLP ([2]; 11 benchmark chemicals): 1A; binary class ([2]; 11 benchmark chemicals): sens
CCCCCCCC/C=C\CCCCCCCC(=O)OCCOCC(OCCO)C1OCC(OCCO)C1OCCO (stereo not shown) [Tween 80]	no cat	no cat	non-sens	−1.39	6	Human potency [1]: 6
CC(C)=CCC/C(C)=C/CO [geraniol]				1.76		
Nc1ccc(C(=O)O)cc1 [PABA]				−1.04		Human potency [1]: 5
CC(C)O [isopropanol]	no cat	no cat	non-sens	−1.37	5	Human potency [1]: 5
CC(C=O)Cc1ccc(C(C)(C)C)cc1 (stereo not shown) [lilial]	1B	1B	sens			binary class (HP*) [1]: S (HP 1-4 = S); CLP [2, 9]: 1B
CC=Cc1ccc(O)c(OC)c1 [isoeugenol]	1A	1A	sens		2	
CCOC(=O)/C=C\C(=O)OCC [diethyl maleate]		1B	sens		2	Human potency [41] [1]: 2; GARD predicted CLP [5]: 1A; predicted CLP [5]: 1A; CLP ([2]; Table 10, chemicals test set 1): 1B; true CLP ([2]; per replicate line): 1B; true CLP [2]: 1B

Molecule	CLP [2, 6]	CLP [2, 7]	binary class [2, 7]	SVM DV [4, 8]	HP [1, 7]	further results
CCCCCCCCCCCCOC(=O)c1cc(O)c(O)c(O)c1 [lauryl gallate]	1A	1A	sens		2	
N#CCCC(Br)(C#N)CBr (stereo not shown) [methyldibromo glutaronitrile]	1A	1A	sens		2	
CCCOC(=O)c1cc(O)c(O)c(O)c1 [propyl gal late]						CLP ([2]; Table 10, chemicals test set 1): 1A
O=C(Oc1ccccc1)c1ccccc1 [phenyl benzoate]	1B	1B	sens		3	
CCOC(=O)c1ccccc1C(=O)OCC [diethyl phthalate]		no cat	non-sens	−2.15	6	GARD predicted CLP [5]: no cat; predicted CLP [5]: no cat; CLP ([2]; Table 10, chemicals test set 1): no cat; true CLP ([2]; per replicate line): no cat; true CLP [2]: no cat
Clc1ccccc1 [chlorobenzene]				−1.63		
Oc1ccccc1 [phenol]						SVM DV [4]: −1.08
C=CCc1ccc(O)c(OC)c1 [eugenol]				1.02		
Nc1ccccc1O [2-aminophenol]				5.98	2	HP ([1]; 11 benchmark chemicals): 2; Human potency [1]: 2
CCCCCCCC(=O)O [octanoic acid]	no cat	no cat	non-sens	−1.19	6	Human potency [1]: 6
O=CCc1ccccc1 [phenylacetaldehyde]	1B	1B	sens			
O=C(O)c1ccc(O)cc1 [p-hydroxybenzoic acid]	no cat	no cat	non-sens			
CCCCBr [1-brombutane, 1-bromobutane]		no cat	non-sens			binary class (HP*) [1]: NS (5-6 = NS); GARD predicted CLP [5]: no cat; predicted CLP [5]: no cat; CLP ([2]; Table 10, chemicals test set 1): no cat; true CLP ([2]; per replicate line): no cat; true CLP [2]: no cat
[K+].[K+].[O]=[Cr](=[O])([O-])[O][Cr](=[O])(=[O])[O-] [potassium dichromate]	1A	1A	sens			
C[S+](C)[O-] [dimethyl sulfoxide]		no cat	non-sens		6	
chloroanilin	1B	1B	sens			
OCC(O)CO [glycerol]				−2.05	6	Human potency [1]: 6
O=C(O)CC(O)(CC(=O)O)C(=O)O [citric acid]						cytotox [3]: no
O=c1c(-c2ccccc2)c1-c1ccccc1 [diphenylcyclopropenone]	1A	1A	sens		1	
